Results from the supplement of paper PMC11414989.

Legend:
Settings in all cases: exposure window: 6 hpf to 120 hpf, static, assay age: 120 hpf (5 dpf)
[1] = test system: Danio rerio larvae (Tropical 5D); experiment: mean distance moved of exposed larvae, light phase (µm per frame (1/25 s)); higher = more movement
Description: (§1)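 Larval photomotor response in Tropical 5D wild-type zebrafish. Larvae were statically exposed to each chemical from 6 hpf to 5 dpf in 96-well plates; morphologically abnormal larvae were excluded. At 120 hpf, larvae were tracked with Ethovision XT (25 frames/s) over the 2nd cycle of 3 min light and 3 min dark. Values are the mean movement metric of exposed larvae per phase; same-plate control means (plate-dependent baseline) are given as conditions.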

[2] = test system: Danio rerio larvae (Tropical 5D); experiment: mean angular velocity of exposed larvae, light phase (angular velocity (unit not stated)); higher = more movement
Description: as §1

[3] = test system: Danio rerio larvae (Tropical 5D); experiment: mean distance moved of exposed larvae, dark phase (µm per frame (1/25 s)); higher = more movement
Description: as §1

[4] = test system: Danio rerio larvae (Tropical 5D); experiment: mean angular velocity of exposed larvae, dark phase (angular velocity (unit not stated)); higher = more movement
Description: as §1

**Q.** Which “mean distance moved of exposed larvae” value ([1]; 0.25 µM) does the source give for `O=C(O)C(F)(F)C(F)(F)C(F)(F)C(F)(F)C(F)(F)C(F)(F)C(F)(F)C(F)(F)C(F)(F)C(F)(F)C(F)(F)C(F)(F)C(F)(F)C(F)(F)C(F)(F)C(F)(F)C(F)(F)F` [Perfluoro-n-octadecanoic acid] here?
**A.** The value was 3.51.

**Q.** And the “mean angular velocity of exposed larvae” value ([2]; 0.25 µM)?
**A.** The value was 0.146.

**Q.** And the “mean distance moved of exposed larvae” value ([3]; 0.25 µM)?
**A.** The value was 10.3.

**Q.** What about the “mean angular velocity of exposed larvae” value ([4]; 0.25 µM) of the same compound?
**A.** The value was 0.571.

**Q.** Which results are given for `O=P(O)(O)C(F)(F)C(F)(F)C(F)(F)C(F)(F)C(F)(F)C(F)(F)C(F)(F)C(F)(F)C(F)(F)C(F)(F)F` [Perfluorodecylphosphonic acid]?
**A.** mean distance moved of exposed larvae ([1]; 0.25 µM): 1.45; mean angular velocity of exposed larvae ([2]; 0.25 µM): 0.0471; mean distance moved of exposed larvae ([3]; 0.25 µM): 9.21; mean angular velocity of exposed larvae ([4]; 0.25 µM): 0.34

**Q.** `O=S(=O)(O)C(F)(F)C(F)(F)C(F)(F)C(F)(F)C(F)(F)C(F)(F)F` [Perfluorohexanesulfonic acid] was tested. Which “mean distance moved of exposed larvae” value ([1]; 0.015 µM) did it give?
**A.** Its value is 2.17.

**Q.** What about the “mean distance moved of exposed larvae” value ([1]; 0.046 µM) of the same compound?
**A.** Its value is 2.46.

**Q.** What about the “mean distance moved of exposed larvae” value ([1]; 0.14 µM) of the same compound?
**A.** The value was 1.98.

**Q.** And the “mean distance moved of exposed larvae” value ([1]; 0.41 µM)?
**A.** Its value is 2.2.

**Q.** And the “mean distance moved of exposed larvae” value ([1]; 1.23 µM)?
**A.** Its value is 3.86.

**Q.** And the “mean distance moved of exposed larvae” value ([1]; 3.7 µM)?
**A.** Its value is 3.31.

**Q.** What about the “mean distance moved of exposed larvae” value ([1]; 11.1 µM) of the same compound?
**A.** The value was 4.59.

**Q.** And the “mean distance moved of exposed larvae” value ([1]; 33.3 µM)?
**A.** Its value is 8.09.

**Q.** And the “mean distance moved of exposed larvae” value ([1]; 66.5 µM)?
**A.** The value was 3.27.

**Q.** What about the “mean distance moved of exposed larvae” value ([1]; 100 µM) of the same compound?
**A.** The value was 3.18.

**Q.** What about the “mean angular velocity of exposed larvae” value ([2]; 0.015 µM) of the same compound?
**A.** The value was 0.178.

**Q.** And the “mean angular velocity of exposed larvae” value ([2]; 0.046 µM)?
**A.** The value was 0.0902.

**Q.** And the “mean angular velocity of exposed larvae” value ([2]; 0.14 µM)?
**A.** Its value is 0.121.

**Q.** What about the “mean angular velocity of exposed larvae” value ([2]; 0.41 µM) of the same compound?
**A.** The value was 0.123.

**Q.** What about the “mean angular velocity of exposed larvae” value ([2]; 1.23 µM) of the same compound?
**A.** The value was 0.25.

**Q.** And the “mean angular velocity of exposed larvae” value ([2]; 3.7 µM)?
**A.** The value was 0.171.

**Q.** What about the “mean angular velocity of exposed larvae” value ([2]; 11.1 µM) of the same compound?
**A.** Its value is 0.153.

**Q.** And the “mean angular velocity of exposed larvae” value ([2]; 33.3 µM)?
**A.** Its value is 0.351.

**Q.** What about the “mean angular velocity of exposed larvae” value ([2]; 66.5 µM) of the same compound?
**A.** Its value is 0.241.

**Q.** What about the “mean angular velocity of exposed larvae” value ([2]; 100 µM) of the same compound?
**A.** Its value is 0.114.

**Q.** And the “mean distance moved of exposed larvae” value ([3]; 0.015 µM)?
**A.** The value was 11.6.

**Q.** And the “mean distance moved of exposed larvae” value ([3]; 0.046 µM)?
**A.** Its value is 20.4.

**Q.** And the “mean distance moved of exposed larvae” value ([3]; 0.14 µM)?
**A.** Its value is 13.8.

**Q.** What about the “mean distance moved of exposed larvae” value ([3]; 0.41 µM) of the same compound?
**A.** The value was 17.2.

**Q.** And the “mean distance moved of exposed larvae” value ([3]; 1.23 µM)?
**A.** The value was 23.

**Q.** And the “mean distance moved of exposed larvae” value ([3]; 3.7 µM)?
**A.** Its value is 22.9.

**Q.** What about the “mean distance moved of exposed larvae” value ([3]; 11.1 µM) of the same compound?
**A.** The value was 25.2.

**Q.** And the “mean distance moved of exposed larvae” value ([3]; 33.3 µM)?
**A.** Its value is 8.39.

**Q.** What about the “mean distance moved of exposed larvae” value ([3]; 66.5 µM) of the same compound?
**A.** The value was 3.78.

**Q.** What about the “mean distance moved of exposed larvae” value ([3]; 100 µM) of the same compound?
**A.** The value was 3.15.

**Q.** And the “mean angular velocity of exposed larvae” value ([4]; 0.015 µM)?
**A.** Its value is 0.475.

**Q.** What about the “mean angular velocity of exposed larvae” value ([4]; 0.046 µM) of the same compound?
**A.** Its value is 0.762.

**Q.** What about the “mean angular velocity of exposed larvae” value ([4]; 0.14 µM) of the same compound?
**A.** The value was 0.609.

**Q.** What about the “mean angular velocity of exposed larvae” value ([4]; 0.41 µM) of the same compound?
**A.** The value was 0.788.

**Q.** And the “mean angular velocity of exposed larvae” value ([4]; 1.23 µM)?
**A.** The value was 0.884.

**Q.** What about the “mean angular velocity of exposed larvae” value ([4]; 3.7 µM) of the same compound?
**A.** The value was 0.738.

**Q.** What about the “mean angular velocity of exposed larvae” value ([4]; 11.1 µM) of the same compound?
**A.** Its value is 0.954.

**Q.** What about the “mean angular velocity of exposed larvae” value ([4]; 33.3 µM) of the same compound?
**A.** The value was 0.358.

**Q.** And the “mean angular velocity of exposed larvae” value ([4]; 66.5 µM)?
**A.** The value was 0.271.

**Q.** What about the “mean angular velocity of exposed larvae” value ([4]; 100 µM) of the same compound?
**A.** Its value is 0.173.

**Q.** Which “mean distance moved of exposed larvae” value ([1]; 0.25 µM) does the source give for `O=P(O)(O)C(F)(F)C(F)(F)C(F)(F)C(F)(F)C(F)(F)C(F)(F)F` [Perfluorohexylphosphonic acid] here?
**A.** The value was 5.18.

**Q.** What about the “mean angular velocity of exposed larvae” value ([2]; 0.25 µM) of the same compound?
**A.** The value was 0.148.

**Q.** What about the “mean distance moved of exposed larvae” value ([3]; 0.25 µM) of the same compound?
**A.** The value was 24.1.

**Q.** And the “mean angular velocity of exposed larvae” value ([4]; 0.25 µM)?
**A.** The value was 0.788.

**Q.** Which “mean distance moved of exposed larvae” value ([1]; 0.25 µM) does the source give for `O=P(O)(O)C(F)(F)C(F)(F)C(F)(F)C(F)(F)C(F)(F)C(F)(F)C(F)(F)C(F)(F)F` [Perfluorooctylphosphonic acid] here?
**A.** Its value is 10.3.

**Q.** And the “mean angular velocity of exposed larvae” value ([2]; 0.25 µM)?
**A.** The value was 0.308.

**Q.** And the “mean distance moved of exposed larvae” value ([3]; 0.25 µM)?
**A.** The value was 29.9.

**Q.** And the “mean angular velocity of exposed larvae” value ([4]; 0.25 µM)?
**A.** The value was 0.959.

**Q.** Which “mean distance moved of exposed larvae” value ([1]; 0.25 µM) does the source give for `O=S(=O)(O)C(F)(F)C(F)(F)C(F)(F)C(F)(F)F` [Potassium perfluoro-1-butanesulfonate] here?
**A.** Its value is 1.73.

**Q.** And the “mean angular velocity of exposed larvae” value ([2]; 0.25 µM)?
**A.** The value was 0.0624.

**Q.** What about the “mean distance moved of exposed larvae” value ([3]; 0.25 µM) of the same compound?
**A.** Its value is 30.9.

**Q.** What about the “mean angular velocity of exposed larvae” value ([4]; 0.25 µM) of the same compound?
**A.** The value was 1.11.

**Q.** Which results are given for `O=S(=O)(O)CCC(F)(F)C(F)(F)C(F)(F)C(F)(F)F` [Sodium 1H,1H,2H,2H-perfluorohexane sulfonate(4:2)]?
**A.** mean distance moved of exposed larvae ([1]; 0.25 µM): 4.72; mean angular velocity of exposed larvae ([2]; 0.25 µM): 0.152; mean distance moved of exposed larvae ([3]; 0.25 µM): 44.7; mean angular velocity of exposed larvae ([4]; 0.25 µM): 1.24

**Q.** Which “mean distance moved of exposed larvae” value ([1]; 0.25 µM) does the source give for `O=S(=O)(O)C(F)(F)C(F)(F)C(F)(F)C(F)(F)C(F)(F)C(F)(F)C(F)(F)C(F)(F)Cl` [Sodium 8-chloroperfluoro-1-octanesulfonate] here?
**A.** Its value is 2.63.

**Q.** And the “mean angular velocity of exposed larvae” value ([2]; 0.25 µM)?
**A.** The value was 0.0987.

**Q.** And the “mean distance moved of exposed larvae” value ([3]; 0.25 µM)?
**A.** The value was 28.8.

**Q.** And the “mean angular velocity of exposed larvae” value ([4]; 0.25 µM)?
**A.** Its value is 0.945.

**Q.** With `O=S(=O)(O)C(F)(F)C(F)(F)C(F)(F)C(F)(F)C(F)(F)F` [Sodium Perfluoro-1-pentanesulfonate] as the compound, how does the “mean distance moved of exposed larvae” value ([1]; 0.25 µM) read?
**A.** Its value is 5.23.

**Q.** What about the “mean angular velocity of exposed larvae” value ([2]; 0.25 µM) of the same compound?
**A.** Its value is 0.235.

**Q.** And the “mean distance moved of exposed larvae” value ([3]; 0.25 µM)?
**A.** Its value is 34.7.

**Q.** And the “mean angular velocity of exposed larvae” value ([4]; 0.25 µM)?
**A.** Its value is 1.28.

**Q.** With `O=P(O)(C(F)(F)C(F)(F)C(F)(F)C(F)(F)C(F)(F)C(F)(F)F)C(F)(F)C(F)(F)C(F)(F)C(F)(F)C(F)(F)C(F)(F)F` [Sodium bis(perfluorohexyl)phosphinate] as the compound, how does the “mean distance moved of exposed larvae” value ([1]; 0.25 µM) read?
**A.** The value was 1.35.

**Q.** And the “mean angular velocity of exposed larvae” value ([2]; 0.25 µM)?
**A.** Its value is 0.163.

**Q.** What about the “mean distance moved of exposed larvae” value ([3]; 0.25 µM) of the same compound?
**A.** The value was 14.2.

**Q.** What about the “mean angular velocity of exposed larvae” value ([4]; 0.25 µM) of the same compound?
**A.** Its value is 0.687.

**Q.** Which “mean distance moved of exposed larvae” value ([1]; 0.25 µM) does the source give for `O=P(O)(C(F)(F)C(F)(F)C(F)(F)C(F)(F)C(F)(F)C(F)(F)C(F)(F)C(F)(F)F)C(F)(F)C(F)(F)C(F)(F)C(F)(F)C(F)(F)C(F)(F)C(F)(F)C(F)(F)F` [Sodium bis(perfluorooctyl)phosphinate] here?
**A.** The value was 2.89.

**Q.** And the “mean angular velocity of exposed larvae” value ([2]; 0.25 µM)?
**A.** Its value is 0.119.

**Q.** And the “mean distance moved of exposed larvae” value ([3]; 0.25 µM)?
**A.** The value was 15.1.

**Q.** And the “mean angular velocity of exposed larvae” value ([4]; 0.25 µM)?
**A.** The value was 0.704.

**Q.** What does the source list for `O=S(=O)(O)C(F)(F)C(F)(F)C(F)(F)C(F)(F)C(F)(F)C(F)(F)C(F)(F)C(F)(F)C(F)(F)C(F)(F)F` [Sodium perfluoro-1-decanesulfonate]?
**A.** mean distance moved of exposed larvae ([1]; 0.25 µM): 6.8; mean angular velocity of exposed larvae ([2]; 0.25 µM): 0.372; mean distance moved of exposed larvae ([3]; 0.25 µM): 24.8; mean angular velocity of exposed larvae ([4]; 0.25 µM): 0.897
